Consider 8 compounds from US5250538A, “Indole derivatives and their use” (Novo Nordisk A/S, priority 1990, dated 1993).

Assay [1] has as its target T1, 5-HT1A (Rattus norvegicus, UniProt P19327).
T1 construct: from tissue
T1 sequence (P19327 1-422): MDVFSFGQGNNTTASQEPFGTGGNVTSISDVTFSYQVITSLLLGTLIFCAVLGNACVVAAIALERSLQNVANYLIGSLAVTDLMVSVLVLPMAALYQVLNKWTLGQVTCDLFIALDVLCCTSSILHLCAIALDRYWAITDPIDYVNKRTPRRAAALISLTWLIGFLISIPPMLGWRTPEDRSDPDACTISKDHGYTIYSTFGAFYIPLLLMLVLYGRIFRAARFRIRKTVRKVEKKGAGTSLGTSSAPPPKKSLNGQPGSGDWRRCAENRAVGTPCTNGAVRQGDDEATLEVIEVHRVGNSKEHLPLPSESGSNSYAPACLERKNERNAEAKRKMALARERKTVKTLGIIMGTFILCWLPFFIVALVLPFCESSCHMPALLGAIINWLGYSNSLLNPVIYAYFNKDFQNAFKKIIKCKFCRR
The assay can be described thus: 5-HT1A receptor binding in vitro (3H-8-OH-DPAT, rat frontal cortex/hippocampus). Conditions: rat brain, ligand 3H-8-OH-DPAT 2 nM, 10 min 37° C. As to the method:
(§1) Compounds of the general formula (I) were tested for binding to 5-HT receptors and compared with known ligands by the following procedure:
(§2) Rat brain tissue (as specified in the table hereinafter) was homogenized using a Polytron homogenizer. The final pellet was resuspended in 125 vol (tissue wet weight) of buffer.
(§3) In all assays incubation was carried out for 10 min at 37° C.
(§4) Detailed conditions for the receptor binding assay in vitro are tabulated below.

The target of assay [2] is T2, 5-HT1B (Rattus norvegicus, UniProt P28564).
T2 construct: from tissue
The assay can be described thus: 5-HT1B receptor binding in vitro (3H-5-HT, 50 nM 8-OH-DPAT included). As to the method:
as §1, §2, §3
Labelling of the 5-HT1B receptor was complicated by the fact that the available ligand ^3 H-5-HT is nonselective.
as §4

The test system of assay [3] is 5-HT2 receptor subtype. Conditions: background, in words; cited from earlier work.
Assay [4] relates to 5-HT1A receptors. Conditions: background, in words; cited from earlier work.
The test system of assay [5] is 5-HT1 recognition sites. Conditions: background, Ann.Reports Med.Chem. 21 (1986), 42-43; cited from earlier work.

Counter-ions that a name gives are not always drawn.

T2 sequence (P28564 whole entry): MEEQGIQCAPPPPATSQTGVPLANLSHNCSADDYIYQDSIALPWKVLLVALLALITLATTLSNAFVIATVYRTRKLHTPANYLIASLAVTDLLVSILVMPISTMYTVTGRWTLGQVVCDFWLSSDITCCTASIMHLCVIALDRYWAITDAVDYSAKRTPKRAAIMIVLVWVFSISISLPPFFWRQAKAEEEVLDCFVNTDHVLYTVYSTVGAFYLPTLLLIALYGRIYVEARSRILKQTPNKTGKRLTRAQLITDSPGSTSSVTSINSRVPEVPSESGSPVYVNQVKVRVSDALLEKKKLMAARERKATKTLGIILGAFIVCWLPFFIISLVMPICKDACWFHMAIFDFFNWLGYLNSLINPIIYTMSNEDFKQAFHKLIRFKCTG

With `O=C1c2ccccc2C(=O)N1CCCCNCCc1c[nH]c2ccccc12` [Example 2, 1-(4-Phthalimidobutyl-1-amino)-2-(3-indolyl)-ethane, oxalate], the IC50 (commonly the concentration that inhibits the measured activity by half) in assay [1] was determined as 0.375 µM; in assay [2], 0.148 µM.

In assay [2], `O=C1c2ccccc2S(=O)(=O)N1CCCCN1CCN(c2ncccn2)CC1` [Ipsapirone, reference compound] returned an IC50 of over 1 µM.

On to `O=C(c1ccc(F)cc1)C1CCN(CCn2c(=O)[nH]c3ccccc3c2=O)CC1` [ketanserin], for which, in assay [3], the “high affinity for the 5-HT2 receptor subtype” value was “high affinity”.

With `CCCN(CCC)C1CCc2cccc(O)c2C1` (stereo not drawn) [Example 8-OH-DPAT, 8-hydroxy-2-(di-n-propylamino)tetralin], the “binds with high affinity to 5-HT1A receptors” value in assay [4] is “high affinity”.

Regarding `O=C1C2C3C=CC(C4C=CC43)C2C(=O)N1CCCCNCCc1c[nH]c2ccccc12` (stereo not drawn) [Example 1, 1-(4-(1,3-Dioxo-4,7-etheno-1,3,3a,4,4a,6a,7,7a-octahydro-2 H-cyclobut[f]isoindol-2-yl)butyl-1-amino)-2-(3-indolyl)-ethane, oxalate], the IC50 in assay [1] stood at 0.026 µM; in assay [2], 0.48 µM.

Turning to `COc1ccc2[nH]cc(CCNCCCCN3C(=O)CC4(CCCC4)CC3=O)c2c1` [Example 4, 1-(4-(7,9-Dioxo-8-azaspiro[4,5]decan-8-yl)butyl-1-amino)-2-(5-methoxy-3-indolyl)-ethane, oxalate], the IC50 in assay [1] is 0.004 µM; in assay [2], over 1 µM.

`COc1ccc2[nH]cc(CCNCCCCN3C(=O)C4C5C=CC(C6C=CC65)C4C3=O)c2c1` (stereo not drawn) [Example 5, 1-(4-(1,3-Dioxo-4,7-etheno-1,3,3a,4,4a,6a,7,7a-octa-hydro-2 H-cyclobut(f]isoindol-2-yl)butyl-1-amino)-2(5-methoxy-3-indolyl)-ethand, oxalate]: the IC50 is 0.0025 µM in assay [1] and over 1 µM in assay [2].

With `COc1ccc2[nH]cc(C3=CCNCC3)c2c1` [RU 24969], the “affinity for 5-HT1 recognition sites” value in assay [5] is “high affinity”.
